Experimental findings from ChEMBL document CHEMBL1201862, “PubChem BioAssay data set” (2004) are described below.

Some test systems named below: UACC-62; CAKI-1; SF-295; SNB-19; NCI-H226; SK-MEL-28; HL-60; SN12C; CCRF-CEM; HT-29; EKVX; HCC 2998; M14; OVCAR-4; RXF 393; SF-539; SK-OV-3; SK-MEL-2.
Common to all, as to test: growth of human tumour cells (NCI), 48 h

Each structure is given as a SMILES string.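 Where inhibition never reached the appropriate level, the endpoint shown equals the highest concentration tested. Otherwise, values were interpolated linearly from a five-concentration, 48-hour dose response in 96-well plates. Here, GI50 denotes the concentration required for 50% inhibition of growth.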 Calls of active or inactive are those of the source. Cut-off read from the data, not from the text of the source: active = GI50 up to about 1.1 µM and inactive = higher.

Take `COc1cccc(C2SCc3nc4ccccc4n32)c1` (stereo unspecified): the GI50 in the test on UACC-62 is 49.9 µM (inactive); with CAKI-1, 37.9 µM (inactive); with SF-295, 35.7 µM (inactive); in the test on SNB-19 it was > 100 µM (inactive); in the test on NCI-H226, 51.4 µM (inactive); with SK-MEL-28, 81.3 µM (inactive). The GI50 is 30.1 µM (inactive) in the test on HL-60; 99.1 µM (inactive) in the test on SN12C; > 100 µM (inactive) with CCRF-CEM; 41.9 µM (inactive) with HT-29; 46.3 µM (inactive) with EKVX; 45.6 µM (inactive) in the test with HCC 2998. Besides, the GI50 in the test with M14 is 77.1 µM (inactive); with OVCAR-4, > 100 µM (inactive); with RXF 393 it was 53.6 µM (inactive); with SF-539, > 100 µM (inactive); with SK-OV-3, 65.3 µM (inactive); with SK-MEL-2, 56.2 µM (inactive).

Consider `Cc1nc2c(=O)[nH]c(=O)n(C)c2[nH]c1=O.c1ccncc1`, for which the GI50 in the test on UACC-62, with CAKI-1, in the test on SNB-19, with NCI-H226, in the test with SK-MEL-28 and with HL-60 was > 100 µM (inactive) throughout. The GI50 was > 100 µM (inactive) in the test with SN12C; 10 µM (inactive) in the test with CCRF-CEM; > 100 µM (inactive) with HT-29; > 100 µM (inactive) with EKVX; > 100 µM (inactive) in the test with HCC 2998; > 100 µM (inactive) in the test with M14. In addition, the GI50 in the test with OVCAR-4, with RXF 393, with SK-OV-3 and with SK-MEL-2 was > 100 µM (inactive) in each case.

As for `C/C(CCN(C)C)=N\OC(=O)c1ccccc1`, the GI50 with UACC-62 was > 100 µM (inactive); with CAKI-1, > 100 µM (inactive); in the test on SF-295, 63.7 µM (inactive); in the test on SNB-19 it was > 100 µM (inactive); in the test on NCI-H226, > 100 µM (inactive); in the test with SK-MEL-28, > 100 µM (inactive). Besides, the GI50 in the test on HL-60, with SN12C, with CCRF-CEM, in the test on HT-29, in the test with EKVX and in the test with HCC 2998 was > 100 µM (inactive) in each case. Further, the GI50 with M14, in the test with OVCAR-4, in the test on RXF 393, in the test with SF-539, in the test with SK-OV-3 and with SK-MEL-2 was > 100 µM (inactive) throughout.

On to `N#CCC(=O)N/N=C1/C(=O)N(c2cc(Cl)ccc2Cl)C(=O)C(=O)C1c1nc2ccccc2s1` (stereo unspecified), for which the GI50 is 29.8 µM (inactive) in the test with UACC-62; 29.5 µM (inactive) with CAKI-1; 94.4 µM (inactive) with SF-295; 64.3 µM (inactive) with SNB-19; > 100 µM (inactive) with NCI-H226; > 100 µM (inactive) in the test with SK-MEL-28. In addition, the GI50 with HL-60 was 43.9 µM (inactive); in the test on SN12C it was > 100 µM (inactive); with CCRF-CEM, 36.9 µM (inactive); in the test on HT-29, > 100 µM (inactive); in the test on EKVX it was 43.4 µM (inactive); with HCC 2998, > 100 µM (inactive). Also, the GI50 is > 100 µM (inactive) in the test with M14; > 100 µM (inactive) in the test on OVCAR-4; < 0.01 µM (active) with RXF 393; > 100 µM (inactive) in the test with SF-539; > 100 µM (inactive) in the test on SK-OV-3; 37.9 µM (inactive) in the test with SK-MEL-2.

`COc1ccc(NN=C2C(=O)CCC2=O)cc1`: the GI50 in the test on UACC-62 was 5.69 µM (inactive); in the test with CAKI-1, > 100 µM (inactive); with SF-295 it was 98.9 µM (inactive); in the test on SNB-19, > 100 µM (inactive); in the test on NCI-H226, > 100 µM (inactive); in the test on SK-MEL-28, > 100 µM (inactive). Further, the GI50 in the test on HL-60, in the test on SN12C, with CCRF-CEM, with HT-29, with EKVX and with HCC 2998 was > 100 µM (inactive) in each case. Further, the GI50 with M14 was 57.3 µM (inactive); in the test with OVCAR-4, 37.5 µM (inactive); in the test on RXF 393, > 100 µM (inactive); with SF-539, > 100 µM (inactive); in the test with SK-OV-3, > 100 µM (inactive); in the test on SK-MEL-2 it was > 100 µM (inactive).

As to `CCOC(=O)C1=C(Nc2ccc(Cl)c(Cl)c2)OC/C1=N\NC(=O)Cc1ccccc1`, the GI50 in the test with UACC-62, with CAKI-1, with SF-295, in the test on SNB-19, with NCI-H226 and with SK-MEL-28 was > 100 µM (inactive) in each case. Further, the GI50 in the test on HL-60, in the test with SN12C, in the test on CCRF-CEM, in the test on EKVX, in the test on HCC 2998 and in the test with M14 was > 100 µM (inactive) each time. The GI50 in the test with OVCAR-4, with RXF 393, in the test with SF-539, with SK-OV-3 and in the test with SK-MEL-2 was > 100 µM (inactive) throughout.

Take `CCC(C)n1c(C)nc2c1C(=O)c1ccccc1C2=O` (stereo unspecified): the GI50 in the test with UACC-62 was 28.2 µM (inactive); with SF-295 it was 49.8 µM (inactive); in the test with SNB-19, 96.6 µM (inactive); in the test on NCI-H226, 61.9 µM (inactive); with SK-MEL-28, 75.7 µM (inactive); in the test on HL-60, 14.5 µM (inactive). Besides, the GI50 with SN12C was 57.8 µM (inactive); in the test with CCRF-CEM, 37.2 µM (inactive); in the test with HT-29 it was 40.4 µM (inactive); in the test with EKVX it was 96.8 µM (inactive); with HCC 2998, 60.8 µM (inactive); with M14 it was > 100 µM (inactive). Also, the GI50 was 73.1 µM (inactive) with OVCAR-4; 26.7 µM (inactive) in the test with RXF 393; 32.7 µM (inactive) in the test on SF-539; > 100 µM (inactive) in the test with SK-OV-3; > 100 µM (inactive) in the test with SK-MEL-2.

Consider `O=C1CCC2(c3ccc(Cl)cc3)Nc3ccccc3N12` (stereo unspecified), for which the GI50 with SF-295 was > 100 µM (inactive); in the test on SNB-19, > 100 µM (inactive); in the test on NCI-H226 it was 67.9 µM (inactive); in the test on SK-MEL-28, > 100 µM (inactive); in the test on HL-60 it was 35.5 µM (inactive); in the test on SN12C it was > 100 µM (inactive). For the same molecule, the GI50 with HT-29 was > 100 µM (inactive); in the test with EKVX, > 100 µM (inactive); in the test on HCC 2998, > 100 µM (inactive); with OVCAR-4, 75 µM (inactive); with RXF 393, 48.3 µM (inactive); in the test with SF-539, > 100 µM (inactive). The GI50 in the test with SK-MEL-2 is > 100 µM (inactive).

Turning to `COc1cc2c3c(c1OC)Oc1ccc(cc1)CC1c4c(cc(OC)c(OC)c4Oc4ccc(cc4)CC3N(C)CC2)CCN1C` (stereo unspecified), the GI50 with UACC-62 is 19 µM (inactive); in the test with CAKI-1, 90.6 µM (inactive); in the test with SF-295, 18.5 µM (inactive); in the test on SNB-19, 33 µM (inactive); with NCI-H226 it was 15.6 µM (inactive); in the test with SK-MEL-28, 18.8 µM (inactive). In addition, the GI50 was 15.3 µM (inactive) in the test on HL-60; 19 µM (inactive) with SN12C; 18.5 µM (inactive) in the test with CCRF-CEM; 15.1 µM (inactive) in the test on HT-29; 67.6 µM (inactive) in the test with EKVX; 14 µM (inactive) in the test with HCC 2998. Besides, the GI50 with M14 was 18.8 µM (inactive); in the test on OVCAR-4 it was 13.3 µM (inactive); in the test with RXF 393, 12.9 µM (inactive); with SF-539 it was 14.5 µM (inactive); in the test on SK-OV-3 it was 28.2 µM (inactive); in the test on SK-MEL-2 it was 32.3 µM (inactive).

On to `Cc1coc2c1C(=O)C(=O)c1ccccc1-2`, for which the GI50 is 1.59 µM (inactive) in the test with UACC-62; 1.86 µM (inactive) in the test with CAKI-1; 1.65 µM (inactive) in the test on SF-295; 1.21 µM (inactive) in the test with NCI-H226; 1.71 µM (inactive) with SK-MEL-28; 0.838 µM (active) in the test on SN12C. Further, the GI50 was 2.22 µM (inactive) in the test with CCRF-CEM; 1.8 µM (inactive) in the test on HT-29; 1.9 µM (inactive) with HCC 2998; 1.35 µM (inactive) in the test with M14; 1.82 µM (inactive) in the test with OVCAR-4; 1.74 µM (inactive) in the test on RXF 393. Besides, the GI50 in the test with SF-539 is 1.52 µM (inactive); in the test with SK-OV-3, 1.76 µM (inactive); in the test with SK-MEL-2, 1.87 µM (inactive).

As for `CNS(=O)(=O)NN(C)S(=O)(=O)c1ccc(Cl)cc1`, the GI50 in the test on UACC-62, in the test on CAKI-1, in the test on SF-295, in the test with SNB-19, in the test with NCI-H226 and in the test with HL-60 was > 100 µM (inactive) throughout. In addition, the GI50 in the test on SN12C is > 100 µM (inactive); in the test with CCRF-CEM it was > 100 µM (inactive); in the test on HT-29, > 100 µM (inactive); with EKVX it was 98.4 µM (inactive); with HCC 2998 it was > 100 µM (inactive); with M14, > 100 µM (inactive). In addition, the GI50 with OVCAR-4, in the test with RXF 393, in the test on SF-539 and in the test with SK-MEL-2 was > 100 µM (inactive) each time.

For the molecule `COC(OC)c1cc2c(cc1C=O)OCO2`, the GI50 in the test with UACC-62 is 44 µM (inactive); with CAKI-1 it was 34.1 µM (inactive); with SNB-19 it was > 100 µM (inactive); in the test on NCI-H226, > 100 µM (inactive); in the test on SK-MEL-28, > 100 µM (inactive); in the test with HL-60, 47.2 µM (inactive). For the same molecule, the GI50 with SN12C is > 100 µM (inactive); in the test on CCRF-CEM, > 100 µM (inactive); in the test with HT-29 it was > 100 µM (inactive); in the test with EKVX it was > 100 µM (inactive); in the test with HCC 2998 it was > 100 µM (inactive); with M14 it was 48.9 µM (inactive). Further, the GI50 in the test with OVCAR-4 was > 100 µM (inactive); in the test with RXF 393 it was > 100 µM (inactive); with SF-539, > 100 µM (inactive); in the test with SK-OV-3, 43.8 µM (inactive); in the test on SK-MEL-2 it was > 100 µM (inactive).
